Test results published in patent US8084020B2, “Use of anti-CD1 antibodies for the modulation of immune responses” (Beth Israel Deaconess Medical Center, priority 2002, dated 2011).

How the values were obtained:
[1] = test system: antigen presenting cells; experiment: Induction of IL-12 production by antigen presenting cells / monocytes in vitro; format: cell-based
Excerpt: (§1) PBMC were obtained from healthy adult volunteers of both sexes on Ficoll Hypaque density gradients and cultured in complete medium consisting of RPMI 1640 and 10% FBS. THP-1 is a human monocytic leukaemia cell line. Compared to other human myeloid cell lines, such as HL-60 and U937, THP-1 cells express CD1d on their surfaces. Because of this characteristic, the THP-1 cell line provides a valuable model for studying the mechanism involved in CD1d crosslinking by measuring the IL-12 and phospho kinases in the cell. THP-1 cells was cultured in complete medium consisting of RPMI 1640 and 10% FBS.
(§2) For the activation of these target cells, an anti-CD1 antibody was bound to a plate and then incubated with the cells. In particular, […] were coated with 10 μg/ml protein G overnight at 4° C. Wells were washed with PBS and blocked with BSA at room temperature for four hours. Antibody (10 μg/ml) was added to each well for four hours at room temperature. The wells were washed again to remove the unbound antibodies, and 1.5×10^5 to 2×10^5 cells were added to each well in RPMI 1640 culture media.
(§3) To measure the increase induction of IL-12 production by an anti-CD1 antibody, the concentrations of P40 and P70 forms of IL-12 in cultured supernatants were measured with a standard sandwich ELISA technique using combinations of monoclonal antibodies to different epitopes of each cytokine (FIGS. 4-22).

[2] = test system: adhered PBMC; experiment: IL-1α release from adhered PBMC; format: cell-based, human
Excerpt: as §1, §2

[3] = test system: THP-1 cells; experiment: IL-12 p40 release from THP-1 cells (ELISA); format: cell-based, human; conditions: FIG. 14; with and without PMA (0.1 ng/ml); 2% serum media; IFNγ (20 ng/ml); two days
Excerpt: as §1
For the activation of these target cells, an anti-CD1 antibody was bound to a plate and then incubated with the cells. In particular, […] were coated with 10 μg/ml protein G overnight at 4° C. Wells were washed with PBS and blocked with BSA at room temperature for four hours. Antibody (10 μg/ml) was added to each well for four hours at room temperature. […]
as §3

## IFNγ: cytokine
[1]
  effect of cytokine on anti-CD1 antibody enhanced production of IL-12: increased the ability of anti-CD1 antibodies to enhance production of IL-12

## lipopolysaccharide [LPS]
[1]
  levels of IL-12 stimulated relative to 51.1 anti-CD1 antibody: comparable or lower levels of IL-12
[2]
  induction of IL-1 relative to 51.1 anti-CD1 antibody: more potent inducer of IL-1

## CCCCCCCCCCCCCC(=O)O[C@@H]1[C@@H](C)[C@@]2(O)[C@@H](C=C(CO)C[C@]3(O)C(=O)C(C)=C[C@@H]23)[C@@H]2C(C)(C)[C@]12OC(C)=O [PMA]
[3]
  effect of PMA on IL-12 p40 released from THP-1 cells: no significant differences

B1: IL-4: cytokine (protein, UniProt P05112 25-153, looked up)
Interleukin-4: HKCDITLQEIIKTLNSLTEQKTLCTELTVTDIFAASKNTTEKETFCRAATVLRQFYSHHEKDTRCLGATAQQFHRHKQLIRFLKRLDRNLWGLAGLNSCPVKEANQSTLENFLERLKTIMREKYSKCSS
[1]
  effect of cytokine on anti-CD1 antibody enhanced production of IL-12: increased the ability of anti-CD1 antibodies to enhance production of IL-12
